Measured values published in the supplement of paper PMC8967900.

Experiments:
Assay in all cases: selective drug sensitivity score (sDSS, relative to normal bone marrow) (sDSS (score)); higher = more potent and effective on the cell line relative to normal bone marrow cells
Details in all cases: 72 h
380 = tested on: 380
697 = tested on: 697
COG-LL-317 = tested on: COG-LL-317
COG-LL-402h = tested on: COG-LL-402h
HAL-01 = tested on: HAL-01
HPB-ALL = tested on: HPB-ALL
JURKAT = tested on: JURKAT
KASUMI-9 = tested on: KASUMI-9
KOPN-8 = tested on: KOPN-8
MHH-CALL-2 = tested on: MHH-CALL-2
MHH-CALL-3 = tested on: MHH-CALL-3
MOLT-14 = tested on: MOLT-14
MOLT-16 = tested on: MOLT-16
NALL-1 = tested on: NALL-1
NALM-16 = tested on: NALM-16
NALM-6 = tested on: NALM-6
REH = tested on: REH
RPMI-8402 = tested on: RPMI-8402
SUP-B15 = tested on: SUP-B15
TANOUE = tested on: TANOUE
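Also: ALL cell lines in 384-well plates, five doses spanning 10,000-fold, each plate scaled between vehicle and 100 µmol/L benzalkonium chloride controls, sDSS an adapted area-under-curve metric.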

| Structure (SMILES) | selective drug sensitivity score 380 | selective drug sensitivity score 697 | selective drug sensitivity score (COG-LL-317) | selective drug sensitivity score (COG-LL-402h) | selective drug sensitivity score (HAL-01) | selective drug sensitivity score (HPB-ALL) | selective drug sensitivity score (JURKAT) | selective drug sensitivity score (KASUMI-9) | selective drug sensitivity score (KOPN-8) | selective drug sensitivity score (MHH-CALL-2) | selective drug sensitivity score (MHH-CALL-3) | selective drug sensitivity score (MOLT-14) | selective drug sensitivity score (MOLT-16) | selective drug sensitivity score (NALL-1) | selective drug sensitivity score (NALM-16) | selective drug sensitivity score (NALM-6) | selective drug sensitivity score (REH) | selective drug sensitivity score (RPMI-8402) | selective drug sensitivity score (SUP-B15) | selective drug sensitivity score (TANOUE) |
| --- | --- | --- | --- | --- | --- | --- | --- | --- | --- | --- | --- | --- | --- | --- | --- | --- | --- | --- | --- | --- |
| Cc1cc(F)c(C(=O)Nc2cccc(-c3nncn3C(C)C)n2)cc1-n1cnc(C2CC2)c1 [Selonsertib] (top concentration 1000 nM) | 1 | 0.3 | 0 | 0 | 6.6 | 0 | 0 | 1.2 | 0 | 11.5 | 0 | 0 | 0 | 0 | 0 | 0 | 0 | 0 | 0 | 0 |
| Nc1nc2cc(-c3ccc4ncc(C(=O)N5CCOCC5)n4c3)ccc2o1 [Serabelisib] (top concentration 10000 nM) | -0.44 | 2.96 | -1.54 | -0.14 | -1.54 | 0.66 | -1.54 | 2.56 | 2.56 | 3.06 | -1.54 | 0.96 | -0.94 | -0.64 | -1.44 | -1.44 | 0.76 | -1.54 | 1.26 | -1.54 |
| CCC(C)(C)C(=O)O[C@H]1C[C@@H](C)C=C2C=C[C@H](C)[C@H](CC[C@@H]3C[C@@H](O)CC(=O)O3)[C@H]21 [Simvastatin] (top concentration 10000 nM) | 4.88 | -0.22 | 6.68 | 0.08 | 3.08 | 0.38 | -0.52 | 4.18 | 4.48 | 9.58 | 6.08 | -0.22 | 2.18 | 3.48 | -0.72 | 0.08 | 0.88 | 2.08 | -0.72 | -0.72 |
| C=CCN(/C=C1/C(=O)O[C@H](COC)[C@@]2(C)C1=C(O)C(=O)C1=C2[C@H](OC(C)=O)C[C@]2(C)C(=O)CC[C@@H]12)CC=C [Sonolisib] (top concentration 10000 nM) | -0.56 | 0.24 | -0.06 | -0.76 | 1.94 | -0.76 | -0.76 | 0.14 | -0.16 | 0.34 | -0.76 | -0.76 | -0.76 | -0.76 | -0.56 | -0.56 | -0.76 | -0.76 | -0.76 | -0.76 |
| CC(C)n1cnc2c(NCCc3ccc(O)cc3)nc(-c3csc4ccccc34)nc21 [StemRegenin_1] (top concentration 10000 nM) | -1.8 | -0.5 | -0.3 | -1.8 | 2.4 | 6.4 | 1 | -0.5 | 0.1 | 2.5 | -1.8 | -0.2 | 4.4 | -1.4 | -1.8 | 1.1 | 1.8 | -0.7 | -0.2 | 4.2 |
| CC(C)(O)CC(=O)NCCn1ccc2ncnc(Nc3ccc(Oc4cccc(C(F)(F)F)c4)c(Cl)c3)c21 [TAK-285] (top concentration 2500 nM) | 0 | 0 | 0 | 0 | 3.1 | 0 | 0 | 3.3 | 0 | 1.6 | 0 | 0 | 0 | 0.1 | 0 | 0 | 0.1 | 0 | 0 | 0 |
| Nc1nc(N)c2nc(-c3cccc(O)c3)c(-c3cccc(O)c3)nc2n1 [TG100-115] (top concentration 10000 nM) | 2.1 | 0.7 | -0.1 | -0.4 | 3.2 | -0.4 | -0.3 | 1.6 | 2.7 | 5.2 | -0.4 | -0.4 | 1.1 | 4.6 | 0.5 | -0.4 | 5.1 | 0 | -0.3 | -0.4 |
| CC/C(=C(\c1ccccc1)c1ccc(OCCN(C)C)cc1)c1ccccc1 [Tamoxifen] (top concentration 10000 nM) | 0.02 | 1.62 | 1.42 | 1.22 | 1.82 | 6.02 | -1.48 | 1.52 | 7.92 | 0.82 | -2.48 | 0.62 | 2.82 | 3.82 | -3.18 | 0.42 | 1.02 | 0.42 | 3.02 | -2.28 |
| COc1cc2c(N3CCN(C(=O)Nc4ccc(OC(C)C)cc4)CC3)ncnc2cc1OCCCN1CCCCC1 [Tandutinib] (top concentration 1000 nM) | 0 | 0 | 0.7 | 0 | 0 | 0 | 0 | 0 | 0 | 0 | 0 | 0 | 0 | 0 | 0.8 | 0 | 0 | 0 | 0.5 | 0 |
| Cn1nnc2c(C(N)=O)ncn2c1=O [Temozolomide] (top concentration 100000 nM) | 5.66 | 3.76 | -0.04 | -0.04 | -0.04 | -0.04 | 2.36 | 6.16 | -0.04 | 3.36 | 4.76 | 3.36 | 5.16 | -0.04 | -0.04 | 2.26 | 6.66 | 1.46 | -0.04 | -0.04 |
| CN1CCC(COc2cnc(-c3cccc(Cn4nc(-c5cccc(C#N)c5)ccc4=O)c3)nc2)CC1 [Tepotinib] (top concentration 1000 nM) | -0.08 | -0.08 | 0.52 | -0.08 | -0.08 | -0.08 | -0.08 | -0.08 | -0.08 | -0.08 | -0.08 | -0.08 | -0.08 | -0.08 | -0.08 | -0.08 | -0.08 | -0.08 | -0.08 | -0.08 |
| NC(=S)N/N=C/c1ncccc1N [Triapine] (top concentration 10000 nM) | 5.88 | 5.88 | 0.88 | 9.28 | 2.18 | 1.58 | 2.28 | 3.98 | 1.78 | 3.48 | 2.08 | 2.08 | 4.68 | 3.48 | 2.68 | 4.48 | 3.88 | 2.38 | 2.48 | -1.32 |
| NC(=O)c1cccc(-c2cccc(OC(=O)NC3CCCCC3)c2)c1 [URB597] (top concentration 1000 nM) | 2.44 | -0.36 | -0.46 | -0.46 | 0.64 | -0.26 | -0.46 | 0.04 | -0.36 | 0.54 | -0.46 | -0.46 | 2.34 | -0.46 | -0.46 | 2.44 | -0.46 | -0.46 | 0.94 | 2.84 |
| COc1cc2/c(=N/c3ccc(Br)cc3F)nc[nH]c2cc1OCC1CCN(C)CC1 [Vandetanib] (top concentration 1000 nM) | -0.22 | 0.18 | -0.22 | 0.18 | 1.68 | -0.22 | -0.22 | -0.22 | -0.22 | 4.38 | 0.78 | 0.48 | -0.22 | 2.28 | -0.22 | -0.22 | -0.22 | -0.22 | 1.08 | -0.22 |
| COc1cccc(-c2ccc(NC(=O)C3=C(C(=O)O)CCC3)c(F)c2)c1 [Vidofludimus] (top concentration 10000 nM) | 5 | 6 | 4.3 | 0 | 2 | 3.2 | 8.2 | 2.7 | 5.5 | 3 | 0.7 | 3.5 | 5.4 | 1.9 | 3.5 | 3.4 | 8.9 | 3.9 | 6 | 3 |
| CC[C@]12C=CCN3CC[C@@]4(c5cc([C@@]6(C(=O)OC)C[C@@H]7C[C@@H](C(C)(F)F)CN(Cc8c6[nH]c6ccccc86)C7)c(OC)cc5N(C)[C@H]4[C@@](O)(C(=O)OC)[C@@H]1OC(C)=O)[C@@H]32 [Vinflunine] (top concentration 1000 nM) | 5.98 | 4.68 | 3.88 | 2.78 | 1.38 | 6.18 | 4.48 | 6.78 | 7.08 | 2.88 | -0.12 | 3.78 | 3.98 | 2.98 | 4.08 | 5.18 | 4.18 | 4.78 | 3.48 | -1.32 |
